Values of other authors as cited in US20200038341A1, “METHODS AND COMPOSITIONS FOR TREATING JOINT DISEASE” (Script Essentials, LLC, priority 2015, published 2020).

Settings: male and female participants over 50 years old, before and after the intervention

## CS(C)(=O)=O [MSM, Methylsulfonylmethane]
  joint function, symptoms of joint degeneration and activities of daily living: improve joint function, relieve symptoms of joint degeneration and improve activities of daily living
